Test results as given in US20230181662A1, “USES OF ANTRODIA CINNAMOMEA EXTRACT IN MANUFACTURING PRODUCTS FOR REDUCING EXPRESSION AND TREATING ASSOCIATED DISEASES OF ANGIOTENSIN CONVERTING ENZYME 2” (priority 2020, published 2023).
Entries after “also recorded” stand apart in the source; their conditions may differ.

target: ACE-2 (Homo sapiens, UniProt Q9BYF1); assay: ACE-2 enzyme activity assay (MCA based peptide substrate, fluorescence); assay type: biochemical; conditions: 20 μg/mL each compound
Sequence (Q9BYF1 18-805, species assumed): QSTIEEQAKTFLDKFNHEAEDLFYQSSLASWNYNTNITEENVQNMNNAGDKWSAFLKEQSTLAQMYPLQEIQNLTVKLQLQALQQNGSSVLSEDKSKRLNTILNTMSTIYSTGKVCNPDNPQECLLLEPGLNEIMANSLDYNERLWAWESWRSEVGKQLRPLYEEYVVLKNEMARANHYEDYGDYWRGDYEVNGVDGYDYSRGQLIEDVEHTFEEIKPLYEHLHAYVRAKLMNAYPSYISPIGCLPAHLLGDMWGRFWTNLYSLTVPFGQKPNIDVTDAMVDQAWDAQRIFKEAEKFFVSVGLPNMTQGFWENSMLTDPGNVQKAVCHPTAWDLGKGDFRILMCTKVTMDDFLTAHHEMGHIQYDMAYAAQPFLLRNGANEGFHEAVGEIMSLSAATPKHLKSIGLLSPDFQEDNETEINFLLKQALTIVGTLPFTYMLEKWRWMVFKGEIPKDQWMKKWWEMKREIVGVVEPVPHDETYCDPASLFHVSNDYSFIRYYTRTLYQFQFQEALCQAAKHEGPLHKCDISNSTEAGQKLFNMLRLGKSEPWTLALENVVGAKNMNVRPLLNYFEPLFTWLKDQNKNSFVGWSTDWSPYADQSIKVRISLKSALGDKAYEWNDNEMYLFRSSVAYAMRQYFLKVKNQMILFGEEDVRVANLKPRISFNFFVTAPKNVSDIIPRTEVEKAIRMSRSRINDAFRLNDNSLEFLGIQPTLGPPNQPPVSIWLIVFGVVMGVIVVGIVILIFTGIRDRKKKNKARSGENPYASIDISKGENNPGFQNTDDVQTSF

| Molecule | inhibition of ACE-2 enzyme activity |
| --- | --- |
| C=C(CC[C@@H](C(=O)O)[C@H]1C[C@H](O)[C@@]2(C)C3=CC[C@H]4C(C)(C)[C@@H](O)CC[C@]4(C)C3=CC[C@]12C)C(C)C [DSA, dehydrosulphurenic acid] | more than 30% |

same assay, conditions: 20 μg/mL each ingredient

| Molecule | inhibition ability on ACE-2 enzymatic activity |
| --- | --- |
| C=C(CC[C@@H](C)[C@H]1CC[C@H]2C3=C(C(=O)C[C@]12C)[C@@]1(C)CCC(=O)[C@@H](C)[C@@H]1CC3)C(C)C(=O)O (stereo partly shown) [Antcin A] | stronger inhibition activity |
| C=C(CCC(C)C1CCC2C3=C(C(=O)C(O)C21C)C1(C)CCC(O)C(C)C1CC3=O)C(C)C(=O)O (stereo not shown) [Antcin H] | had inhibition ability |
| C=C(CC[C@@H](C(=O)O)[C@H]1CC[C@@]2(C)C3=CC[C@H]4C(C)(C)[C@@H](O)CC[C@]4(C)C3=CC[C@]12C)C(C)C [DEA, dehydroeburicoic acid] | had inhibition ability; also recorded: have ability of inhibition on ACE-2 |
| C=C(CC[C@@H](C(=O)O)[C@H]1C[C@H](O)[C@@]2(C)C3=CC[C@H]4C(C)(C)[C@@H](O)CC[C@]4(C)C3=CC[C@]12C)C(C)C [DSA, dehydrosulphurenic acid] | stronger inhibition activity; also recorded: have ability of inhibition on ACE-2 |
| Antcin C | had inhibition ability |
| Antcin K | stronger inhibition activity; also recorded: have ability of inhibition on ACE-2 |
